Results as given in ChEMBL document CHEMBL4813914, “Tackling Antimicrobial Resistance with Small Molecules Targeting LsrK: Challenges and Opportunities” (J Med Chem, 2020).

Tests used:
[1] = Inhibition of Salmonella typhimurium LsrK expressed in Escherichia coli MET1158 in presence of DPD by kinase-glo max luminescent assay; set-up: species or system Salmonella enterica subsp. enterica serovar Typhimurium
[2] = Inhibition of LsrK expressed in Escherichia coli JW5503 harboring plasmid pET-Plsrlux assessed as reduction in autoinducer2-mediated quorum sensing activation by luminescence method
[3] = Inhibition of Salmonella typhimurium LsrK expressed in Escherichia coli MET1158 incubated for 30 mins followed by DPD and ATP addition and measured after 15 mins by kinase-glo max luminescent assay; set-up: species or system Salmonella enterica subsp. enterica serovar Typhimurium
[4] = Inhibition of LsrK expressed in Escherichia coli LW7 pLW11 harboring assessed as reduction in autoinducer2-mediated quorum sensing by measuring beta-galactosidase expression by luminescence method

SMILES	IC50 [1] [µM]	IC50 [2] [nM]	further results
O=C(O)c1ccc(O)c2ncccc12	292		
O=C(O)c1ccccc1Nc1ccc(Cl)cc1	141		
O=C(O)c1ccccc1Nc1cccc(Cl)c1	119		
O=C(O)C(=O)Nc1nc2ccc(NC(=O)c3cc(Br)c(Br)[nH]3)cc2s1	18	600	
O=C(O)c1ccc(Cl)cc1Nc1ccccc1	30		
O=C(O)CC(=O)Nc1ccc2nc(N(Cc3ccccc3)C(=O)c3cc(Br)c(Br)[nH]3)sc2c1	15	400	
O=C(O)C(=O)Nc1ccc2nc(N(Cc3ccccc3)C(=O)c3cc(Br)c(Br)[nH]3)sc2c1	18	10000	
Cc1[nH]c(C(=O)N(Cc2ccccc2)c2nc3ccc(NC(=O)C(=O)O)cc3s2)c(Cl)c1Cl	29	1000	
O=C(O)c1c(Cl)c(Cl)c(Cl)c(Cl)c1Nc1cc(Cl)c(Cl)c(Cl)c1Cl	12		
O=C(Nc1ccc(C2=N[C@@H](C(=O)O)CO2)cc1)c1cc(Br)c(Br)[nH]1	78	17000	
O=C(O)C(=O)N[C@H]1CCc2nc(NC(=O)c3cc(Br)c(Br)[nH]3)sc2C1	147	2000	
COc1ccc(Nc2cc(C(F)(F)F)ccc2Cl)c(C(=O)O)c1	67		
O=C(O)C1=CC(=C(c2ccc(O)c(C(=O)O)c2)c2ccc(O)c(C(=O)O)c2)C=CC1=O [AURINTRICARBOXYLIC ACID]			IC50 [3]: 1000 nM
O=C1C=CC(=C(c2ccc(O)cc2)c2ccc(O)cc2)C=C1 [AURIN]			IC50 [3]: 1000 nM; IC50 [4]: 14 µM
CC1=C(O)C(=O)C=C2C1=CC=C1[C@@]2(C)CC[C@@]2(C)[C@@H]3C[C@](C)(C(=O)O)CC[C@]3(C)CC[C@]12C [CELASTROL]			IC50 [3]: 3000 nM
Cc1ccc(Cl)c(Nc2ccccc2C(=O)O)c1Cl [MECLOFENAMIC ACID]	178		
COc1cc(C)c2c(c1C=O)Oc1c(c(C)c(O)c3c1C(O)OC3=O)OC2=O (stereo not given) [STICTIC ACID]			IC50 [3]: 3000 nM
Cc1c(Cl)cccc1Nc1ccccc1C(=O)O [TOLFENAMIC ACID]	70		
